Measurements reported in article PMC7377239, “Cardiovascular Effects of Polychlorinated Biphenyls and Their Major Metabolites” (Environmental Health Perspectives, 2020).
Where two headings read alike, the source gives them in different places.

Tested on: iCell cardiomyocytes (human iPSC-derived cardiomyocytes)
Test: Intracellular Ca2+ flux / beating parameters in iCell cardiomyocytes (FLIPR tetra), 90 min or 24 h
Format: cell-based
Conditions: Homo sapiens, Cardiomyocyte, 0.00 µM = 100.00; for activity at 0.1 µM: 0.10 µM
In short: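 PODs were defined as the concentration crossing one SD of the vehicle-control means (0.5% DMSO) on four-parameter logistic fits of Ca2+ trace metrics (peak height, frequency, peak-spacing CV, decay/rise ratio). Traces came from 100 s, 8 Hz FLIPR reads at 37 °C on calcium-dye-loaded iCell cardiomyocytes. Before reading, cells were treated for 90 min or 24 h from 5× chemical plates spanning 0.05–500 µM, in triplicate.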

[1] = 1.5 h, read-out: cm.amp.avg.90min
[2] = 1.5 h, read-out: cm.amp.cv.90min
[3] = 1.5 h, read-out: cm.decay.rise.90min
[4] = 1.5 h, read-out: cm.spacing.cv.90min
[5] = 24 h, read-out: cm.amp.avg.24hrs
[6] = 24 h, read-out: cm.amp.cv.24hrs
[7] = 24 h, read-out: cm.decay.rise.24hrs
[8] = 24 h, read-out: cm.spacing.cv.24hrs

Oc1cccc(-c2ccc(Cl)cc2)c1 [3'-OH PCB3]
activity at 0.01 µM [1]: 95.3%
activity at 0.01 µM [2]: 94.5%
activity at 0.01 µM (1.5 h, read-out: cm.bpm.90min): 97.8%
activity at 0.01 µM [3]: 96.7%
activity at 0.01 µM [4]: 101%
activity at 0.1 µM [1]: 100%
activity at 0.1 µM [2]: 80.2%
activity at 0.1 µM (1.5 h, read-out: cm.bpm.90min): 102%
activity at 0.1 µM [3]: 97.5%
activity at 0.1 µM [4]: 106%
activity at 1 µM [1]: 97.7%
activity at 1 µM [2]: 92.4%
activity at 1 µM (1.5 h, read-out: cm.bpm.90min): 105%
activity at 1 µM [3]: 102%
activity at 1 µM [4]: 98.3%
activity at 10 µM [1]: 90.4%
activity at 10 µM [2]: 103%
activity at 10 µM (1.5 h, read-out: cm.bpm.90min): 130%
activity at 10 µM [3]: 97.2%
activity at 10 µM [4]: 123%
activity at 100 µM [1]: 0%
activity at 100 µM [2]: 0%
activity at 100 µM (1.5 h, read-out: cm.bpm.90min): 0%
activity at 100 µM [3]: 0%
activity at 100 µM [4]: 0%
activity at 0.01 µM [5]: 82.3%
activity at 0.01 µM [6]: 114%
activity at 0.01 µM (24 h, read-out: cm.bpm.24hrs): 104%
activity at 0.01 µM [7]: 102%
activity at 0.01 µM [8]: 105%
activity at 0.1 µM [5]: 110%
activity at 0.1 µM [6]: 78.7%
activity at 0.1 µM (24 h, read-out: cm.bpm.24hrs): 97.4%
activity at 0.1 µM [7]: 94.2%
activity at 0.1 µM [8]: 100%
activity at 1 µM [5]: 88.2%
activity at 1 µM [6]: 107%
activity at 1 µM (24 h, read-out: cm.bpm.24hrs): 99.3%
activity at 1 µM [7]: 102%
activity at 1 µM [8]: 97%
activity at 10 µM [5]: 22%
activity at 10 µM [6]: 101%
activity at 10 µM (24 h, read-out: cm.bpm.24hrs): 56.3%
activity at 10 µM [7]: 44.1%
activity at 10 µM [8]: 54.5%
activity at 100 µM [5]: 0%
activity at 100 µM [6]: 0%
activity at 100 µM (24 h, read-out: cm.bpm.24hrs): 0%
activity at 100 µM [7]: 0%
activity at 100 µM [8]: 0%
